# Biological target: Platelet-activating factor receptor (Oryctolagus cuniculus)
# Assay: Inhibition of rabbit platelet aggregation induced by platelet activating factor (PAF)
row,Structure (SMILES),IC50
1,CCCCCCCCCCCCCCCCCCOCC(COC(=O)NCC[N+](C)(C)C)OC(C)=O (stereo not drawn),8.4 µM
2,CCCCCCCCCCCCCCCCCCNC(=O)OCC(COC(=O)N(CC[N+](C)(C)C)C(=O)CC)OC (stereo not drawn),5.6 µM
3,CCCCCCCCCCCCCCCCCCNC(=O)OCC(COC(=O)N(CC[N+](C)(C)C)C(=O)N1CCCC1)OC (stereo not drawn),8.6 µM
4,CCCCCCCCCCCCCCCCCCNC(=O)OCC(COC(=O)N(Cc1csc[n+]1C)C(C)=O)OC (stereo not drawn),0.1 µM
5,CCCCCCCCCCCCCCCCCCNC(=O)OCC(COC(=O)NCC[N+](C)(C)C)OC (stereo not drawn),14 µM
6,CCCCCCCCCCCCCCCCCCNC(=O)OCC(COC(=O)N(CC[N+](C)(C)C)C(=O)NCCC)OC (stereo not drawn),> 30 µM
7,CCCCCCCCCCCCCCCCCCNC(=O)OCC(COC(=O)N(CC[N+](C)(C)C)C(=O)N(C)C)OC (stereo not drawn),5.8 µM
8,CCCCCCCCCCCCCCCCCCNC(=O)OCC(COC(=O)N(CC[N+](C)(C)C)C(=O)OC)OC (stereo not drawn),2.3 µM
9,CCCCCCCCCCCCCCCCCCNC(=O)OCC(COC(=O)N(Cc1cccc[n+]1C)C(C)=O)OC (stereo not drawn),0.2 µM
10,CCCCCCCCCCCCCCCCCCNC(=O)OCC(COC(=O)N(CC[N+](C)(C)C)C(=O)CCC)OC (stereo not drawn),7.8 µM
11,CCCCCCCCCCCCCCCCCCOCC(COC(=O)N(CC[N+](C)(C)C)C(C)=O)OC(C)=O (stereo not drawn),0.88 µM
12,CCCCCCCCCCCCCCCCCCNC(=O)OCC(COC(=O)N(CCC[N+](C)(C)C)C(C)=O)OC (stereo not drawn),8.5 µM
13,CCCCCCCCCCCCCCCCCCNC(=O)OCC(COC(=O)N(CC[N+]1(C)CCOCC1)C(C)=O)OC (stereo not drawn),9.2 µM
14,CCCCCCCCCCCCCCCCCCNC(=O)OCC(COC(=O)N(Cc1csc[n+]1CC)C(C)=O)OC (stereo not drawn),0.092 µM
15,CCCCCCCCCCCCCCCCCCNC(=O)OCC(COC(=O)N(CC[N+]1(C)CCCC1)C(C)=O)OC (stereo not drawn),1.1 µM
16,CCCCCCCCCCCCCCCCCCNC(=O)OCC(COC(=O)N(C)CC[N+](C)(C)C)OC (stereo not drawn),8.2 µM
17,CCCCCCCCCCCCCCCCCCNC(=O)OCC(COC(=O)N(Cc1cccc[n+]1CCC)C(C)=O)OC (stereo not drawn),0.094 µM
18,CCCCCCCCCCCCCCCCCCNC(=O)OCC(COC(=O)N(CC[N+](C)(C)C)C(C)=O)OC (stereo not drawn),1.5 µM

# Source: BindingDB's records for doi:10.1021/jm00121a012 (Takeda Chemical Industries, 1989)
